# Experiments:
# [1] = Solubility of NAC crystals in water; assay type: physicochemical
# Protocol: The solubility of NAC crystals in water was measured for different NAC concentrations, at different temperatures.
# [2] = tested on: hyaluronidase Type IV-S, from bovine testes (Hyase); assay: Dische's assay (Method II) of HA degradation by Hyase with inhibitors; assay type: biochemical
# Protocol: Method II (Dische's assay; detection of uronic acid residues): Assays were performed by following the procedures described in Dische Z. [J. Biol. Chem., 1947, 167, p. 189-198] and Dische and Rothschild [Anal Biochem., 1967, 21(1), p. 125-30]. In these assays, molecules containing the uronic acid residues found in the precipitate formed upon CPC additions, are re-solubilized and products formed by -sulfuric acid hydrolysis of these fragments are detected by a spectrophotometric assay employing carbazole chromagen reagent. In addition, small residues degraded off the HA chains that have not precipitated with the addition of CPC, can be detected by the carbazole assay performed on the solution, so as to detect all of the uronic acid content.
# Evaluation of HA degradation by this method was generally performed as follows:
# 20 μL of a NAC stock solution, and 20 μL of the stock solutions of the other inhibitors were used in the assay.
# 200 μL of the HA stock solution were placed in each tube, for achieving a 1 mg HA per tube.
# Twenty (20) μL of hyase and 20 μL of NAC were combined and incubated for 2 hours. Then 200 μL of HA (1 mg) were added to each tube and the mixture was incubated at room temperature for 24 hours. Thereafter, the tubes were heated for 2 minutes in boiling water bath and 8 mL of doubled distilled water were added to the tubes as preparation for the Dische's assay.
# As per Dische's Assay, 100 μL of 3N NaCl and 0.5 mL of 10% CPC (cetylpyridinium chloride) were thereafter added to each tube and the mixture was incubated at 37° C. until flocculation-turbidity (resulting from precipitation of HA+CPC) could be observed. The mixture was centrifuged for 10 minutes at 10,000 g at room temperature, and the supernatant was thereafter separated from the obtained pellet.
# The pellet was dissolved in 1 ml of CaCl2, and the obtained solution was incubated at 37° C. until complete dissolution of the pellet is obtained. A 2:1 v/v ethanol/ether mixture (8 ml) was thereafter added, and the mixture was intensively stirred (by vortex) and kept at −20° C. overnight. The obtained pellet was collected following a centrifugation for 10 minutes at 10,000 g. Then, distilled water (1 mL) was added to solubilize the pellet, followed by addition of 0.2 ml Carbazole 1%. The mixture was stirred thoroughly, and concentrated sulfuric acid (6 mL) was thereafter added.
# The samples were transferred into tight closed tubes, placed for 10 minutes in a boiling water bath, and was thereafter cooled in ice until it reached room temperature.
# The pink-violet color developed by the chromogen was measured using a spectrophotometer at 527 nm.
# Ditch assay, as described hereinabove (Method II) was performed while using the following Hyase inhibitors:
# The experiment was run at room temperature (23° C.). Hyase and Inhibitors were incubated first for 2 hours prior to the addition of HA. Blank tubes included no substrate (HA) and Control tubes included no enzyme, no inhibitor and HA (200 μL). Tubes 5 and 6 contained HA and Hyase with no inhibitor. Standard Solutions with no enzyme and no inhibitor and HA 50 μL and 10 μL were also tested, for calibration. % HA cleaved denotes the weight percent of HA that was degraded. % HA residue denotes the weight percent of non-degraded HA, and represents the % of Hyase inhibition.
# chondroitinase ABC = assay: HA gelation consistency (Method III) in the presence of Chondroitinase ABC; assay type: biochemical, Proteus vulgaris; conditions: Table 4: NAC 400 mg dry powder (20% final), HA 2 cc of 1%, Chondroitinase ABC 50 μL, 37° C.; cell wraps: Viscous liquid
# Protocol: Method III (Viscosity of HA): HA at low concentrations (e.g., 1%) in aqueous solution forms a viscous colloidal hydrogel solution, which yields semi-solid gel particles at room temperature and a solid gel at 4° C.
# HA degradation was evaluated using Method III, as described hereinabove.
# HA state of gelation was studied in the presence of NAC and various HA-degrading enzymes, using the following Stock solutions:
# The tested enzyme (50 μL) was placed in a tube, NAC (50 μL of the Stock solution, final concentration of about 3.3%) was added and the mixture was incubated for 2 hours at room temperature (23° C.). Then, 2 ml of HA 1% were added to each tube and tubes were further incubated at room temperature for additional 24 hours.
# In a second set of experiments, NAC (50 μL of the Stock solution) was added to a tube containing 2 ml of HA 1%; and the tubes were incubated for 2 hours at room temperature. Then, the HA-degrading enzyme was added and tubes were incubated at room temperature for additional 24 hours. In control tubes 9 and 10 (containing only HA), 50 μL of water were added to achieve the same volume as the other tested tubes.
# In another set of experiments, the effect of NAC powder, (at a final concentration of 20%), on HA gelation in the presence of Hyase or Chondroitinase ABC was tested. […]
smiles,measurement,setting,value
"CC(=O)N[C@@H](CS)C(=O)O [NAC, N-acetyl L-cysteine]",Clearance (solubility of NAC crystals in water),"[1]; NAC concentration 10%, at 4° C. (storage)",Clear
same,Clearance (solubility of NAC crystals in water),"[1]; NAC concentration 10%, at 23° C., room temperature",Clear
same,Clearance (solubility of NAC crystals in water),"[1]; NAC concentration 10%, at 34-37° C., skin and body temperature",Clear
same,Clearance (solubility of NAC crystals in water),"[1]; NAC concentration 12%, at 4° C. (storage)",Clear
same,Clearance (solubility of NAC crystals in water),"[1]; NAC concentration 12%, at 23° C., room temperature",Clear
same,Clearance (solubility of NAC crystals in water),"[1]; NAC concentration 12%, at 34-37° C., skin and body temperature",Clear
same,Clearance (solubility of NAC crystals in water),"[1]; NAC concentration 14%, at 4° C. (storage)",Clear
same,Clearance (solubility of NAC crystals in water),"[1]; NAC concentration 14%, at 23° C., room temperature",Clear
same,Clearance (solubility of NAC crystals in water),"[1]; NAC concentration 14%, at 34-37° C., skin and body temperature",Clear
same,Clearance (solubility of NAC crystals in water),"[1]; NAC concentration 16%, at 4° C. (storage), cell wraps: Minimal crystals appearance",Minimal crystals
same,Clearance (solubility of NAC crystals in water),"[1]; NAC concentration 16%, at 23° C., room temperature",Clear
same,Clearance (solubility of NAC crystals in water),"[1]; NAC concentration 16%, at 34-37° C., skin and body temperature",Clear
same,Clearance (solubility of NAC crystals in water),"[1]; NAC concentration 18%, at 4° C. (storage)",More crystals
same,Clearance (solubility of NAC crystals in water),"[1]; NAC concentration 18%, at 23° C., room temperature, cell wraps: Minimal crystals appearance",Minimal
same,Clearance (solubility of NAC crystals in water),"[1]; NAC concentration 18%, at 34-37° C., skin and body temperature",Clear
same,Clearance (solubility of NAC crystals in water),"[1]; NAC concentration 20%, at 4° C. (storage)",More crystals
same,Clearance (solubility of NAC crystals in water),"[1]; NAC concentration 20%, at 23° C., room temperature",More crystals
same,Clearance (solubility of NAC crystals in water),"[1]; NAC concentration 20%, at 34-37° C., skin and body temperature",Clear
same,NAC concentration completely soluble in water,[1]; at 23° C. and at lower temperatures,≤ 15%
same,concentration at which NAC solubilization reaches saturation,"[1]; at room temperature, presumed from crystals in the HA gel tubes",20%
same,NAC concentration completely soluble in water,[1]; from 34° C. and up,≥ 20%
same,% HA degraded,"[2]; 20 μL inhibitor stock incubated 2 h with 20 μL Hyase, then HA 200 μL, room temperature 24 h",0%
same,inhibition of HA degradation,"[2]; NAC final concentration of the incubate 2%, Tubes 11-12",completely inhibited HA degradation
same,% of inhibition of HA degradation,[2]; derived from Table 1,100%
same,% HA intact (precipitated),"[2]; represents % of Hyase inhibition, 20 μL inhibitor, 20 μL Hyase, HA 200 μL, room temperature 24 h",100%
same,Consistency,chondroitinase ABC,Viscous
